According to the OligoGym collection:
Where “and” joins values, the source holds several entries; their conditions need not be identical. Equal values may be shown once. HELM strings list units from the 5' end as sugar, base in round brackets, then linkage (d deoxyribose, r ribose, m 2'-O-methyl, p phosphodiester). Strings are as the collection lists them, not checked against the first reports. ss, as = sense and antisense strand; [hna] = hexitol nucleic acid; [s4r] = 4'-thioribose; [fl2r] = 2'-fluoro

Conditions: siRNA
Further: test system not given here.

Substance	target mRNA knockdown
RNA1{r(A)p.r(G)p.r(A)p.r(A)p.r(G)p.r(G)p.r(A)p.r(C)p.m(U)p.r(A)p.r(C)p.m(U)p.r(A)p.r(A)p.r(C)p.r(C)p.r(U)p.r(C)p.r(C)p.r(T)p.r(T)}|RNA2{r(G)p.r(G)p.r(A)p.r(G)p.r(G)p.r(U)p.r(U)p.r(A)p.r(G)p.m(U)p.r(A)p.r(G)p.r(U)p.r(C)p.r(C)p.r(U)p.r(U)p.r(C)p.r(U)p.r(T)p.r(T)}$$$RNA1{StrandType:ss}|RNA2{StrandType:as}$	81%
RNA1{m(G)p.r(G)p.m(C)p.r(C)p.m(U)p.r(U)p.m(U)p.r(C)p.m(U)p.r(C)p.m(U)p.r(C)p.m(U)p.r(A)p.m(G)p.r(A)p.m(U)p.r(A)p.m(U)p.r(T)p.r(T)}|RNA2{r(A)p.r(U)p.r(A)p.r(U)p.r(C)p.r(U)p.r(A)p.r(G)p.r(A)p.r(G)p.r(A)p.r(G)p.r(A)p.r(A)p.r(A)p.m(G)p.r(G)p.r(C)p.r(C)p.r(T)p.r(T)}$$$RNA1{StrandType:ss}|RNA2{StrandType:as}$	80%
RNA1{r(G)p.r(A)p.r(C)p.r(G)p.[hna](U)p.r(A)p.r(A)p.[hna](A)p.r(C)p.r(G)p.[hna](G)p.r(C)p.r(C)p.[hna](A)p.r(C)p.r(A)p.r(A)p.r(G)p.r(U)p.r(U)p.d(T)}|RNA2{r(A)p.r(C)p.r(U)p.r(U)p.r(G)p.r(U)p.r(G)p.r(G)p.r(C)p.r(C)p.r(G)p.r(U)p.r(U)p.r(U)p.r(A)p.r(C)p.r(G)p.r(U)p.r(C)p.r(G)p.r(C)}$$$RNA1{StrandType:ss}|RNA2{StrandType:as}$	81.2%
RNA1{r(A)p.r(A)p.r(A)p.r(C)p.m(C)p.r(U)p.m(C)p.r(A)p.r(G)p.r(C)p.r(C)p.r(C)p.m(U)p.r(A)p.r(A)p.r(C)p.r(G)p.r(G)p.r(U)p.r(T)p.r(T)}|RNA2{r(A)p.r(C)p.r(C)p.r(G)p.r(U)p.m(U)p.r(A)p.r(G)p.r(G)p.r(G)p.r(C)p.m(U)p.r(G)p.r(A)p.r(G)p.r(G)p.r(U)p.r(U)p.r(U)p.r(T)p.r(T)}$$$RNA1{StrandType:ss}|RNA2{StrandType:as}$	79%
RNA1{r(C)p.[fl2r](U)p.r(G)p.r(A)p.r(C)p.r(C)p.r(G)p.r(G)p.r(A)p.r(A)p.r(G)p.r(C)p.r(G)p.r(C)p.r(U)p.r(U)p.r(A)p.r(A)p.r(A)p.r(T)p.r(T)}|RNA2{r(U)p.r(U)p.[fl2r](U)p.r(A)p.r(A)p.r(G)p.r(C)p.r(G)p.r(C)p.r(U)p.r(U)p.r(C)p.r(C)p.r(G)p.r(G)p.r(U)p.r(C)p.r(A)p.r(G)p.r(T)p.r(T)}$$$RNA1{StrandType:ss}|RNA2{StrandType:as}$	87%
RNA1{m(A)p.r(A)p.m(A)p.r(C)p.m(G)p.r(U)p.m(G)p.r(A)p.m(C)p.r(U)p.m(U)p.r(U)p.m(G)p.r(G)p.m(U)p.r(U)p.m(C)p.r(C)p.m(U)p.r(T)p.r(T)}|RNA2{r(A)p.m(G)p.m(G)p.r(A)p.r(A)p.r(C)p.r(C)p.r(A)p.r(A)p.r(A)p.m(G)p.r(U)p.r(C)p.r(A)p.r(C)p.m(G)p.r(U)p.r(U)p.r(U)p.r(T)p.r(T)}$$$RNA1{StrandType:ss}|RNA2{StrandType:as}$	37%
RNA1{m(A)p.r(U)p.m(A)p.r(C)p.m(U)p.r(U)p.m(G)p.r(G)p.m(C)p.r(G)p.m(G)p.r(G)p.m(C)p.r(U)p.m(C)p.r(U)p.m(U)p.r(U)p.m(C)p.r(T)p.r(T)}|RNA2{r(G)p.r(A)p.r(A)p.r(A)p.r(G)p.r(A)p.r(G)p.r(C)p.r(C)p.r(C)p.r(G)p.r(C)p.r(C)p.r(A)p.r(A)p.r(G)p.r(U)p.r(A)p.r(U)p.r(T)p.r(T)}$$$RNA1{StrandType:ss}|RNA2{StrandType:as}$	19%
RNA1{r(A)p.r(A)p.r(G)p.r(G)p.r(A)p.r(G)p.r(A)p.m(U)p.m(C)p.r(A)p.r(A)p.m(C)p.r(A)p.m(U)p.m(U)p.m(U)p.m(U)p.m(C)p.r(A)p.r(T)p.r(T)}|RNA2{m(U)p.r(G)p.r(A)p.r(A)p.r(A)p.r(A)p.m(U)p.r(G)p.r(U)p.r(U)p.r(G)p.r(A)p.m(U)p.m(C)p.m(U)p.m(C)p.m(C)p.m(U)p.m(U)p.r(T)p.r(T)}$$$RNA1{StrandType:ss}|RNA2{StrandType:as}$	53% and 74%
RNA1{r(G)p.r(A)p.r(A)p.r(G)p.r(G)p.r(G)p.r(G)p.r(A)p.r(A)p.r(A)p.r(U)p.r(C)p.m(U)p.m(G)p.m(U)p.m(G)p.r(G)p.r(U)p.r(U)p.r(T)p.r(T)}|RNA2{r(A)p.r(A)p.r(C)p.m(C)p.m(A)p.m(C)p.m(A)p.r(G)p.r(A)p.r(U)p.r(U)p.r(U)p.r(C)p.r(C)p.r(C)p.r(C)p.r(U)p.r(U)p.r(C)p.r(T)p.r(T)}$$$RNA1{StrandType:ss}|RNA2{StrandType:as}$	61%
RNA1{m(G)p.r(U)p.m(A)p.r(U)p.m(C)p.r(C)p.m(G)p.r(A)p.m(A)p.r(G)p.m(A)p.r(C)p.m(G)p.r(A)p.m(A)p.r(G)p.m(C)p.r(U)p.m(A)p.r(T)p.r(T)}|RNA2{r(U)p.m(A)p.r(G)p.r(C)p.r(U)p.r(U)p.r(C)p.r(G)p.r(U)p.r(C)p.r(U)p.r(U)p.r(C)p.r(G)p.r(G)p.m(A)p.r(U)p.m(A)p.r(C)p.r(T)p.r(T)}$$$RNA1{StrandType:ss}|RNA2{StrandType:as}$	30%
RNA1{[fl2r](C)p.r(G)p.[fl2r](A)p.r(A)p.[fl2r](A)p.r(G)p.[fl2r](U)p.r(G)p.[fl2r](U)p.r(A)p.[fl2r](U)p.r(C)p.[fl2r](C)p.r(G)p.[fl2r](A)p.r(A)p.[fl2r](G)p.r(A)p.[fl2r](C)p.r(T)p.r(T)}|RNA2{[fl2r](G)p.r(U)p.r(C)p.r(U)p.r(U)p.r(C)p.[fl2r](G)p.[fl2r](G)p.r(A)p.r(U)p.r(A)p.r(C)p.r(A)p.r(C)p.r(U)p.r(U)p.r(U)p.r(C)p.[fl2r](G)p.r(T)p.r(T)}$$$RNA1{StrandType:ss}|RNA2{StrandType:as}$	41%
RNA1{m(A)p.r(A)p.m(G)p.r(G)p.m(C)p.r(A)p.m(U)p.r(G)p.m(C)p.r(U)p.m(U)p.r(C)p.m(G)p.r(G)p.m(A)p.r(A)p.m(A)p.r(C)p.m(U)p.r(T)p.r(T)}|RNA2{r(A)p.m(G)p.r(U)p.r(U)p.r(U)p.r(C)p.r(C)p.r(G)p.r(A)p.r(A)p.m(G)p.r(C)p.r(A)p.r(U)p.m(G)p.r(C)p.r(C)p.r(U)p.r(U)p.r(T)p.r(T)}$$$RNA1{StrandType:ss}|RNA2{StrandType:as}$	60%
RNA1{m(U)p.r(C)p.m(C)p.r(U)p.m(C)p.r(G)p.m(U)p.r(C)p.m(G)p.r(U)p.m(C)p.r(U)p.m(G)p.r(U)p.m(U)p.r(C)p.m(U)p.r(A)p.m(A)p.r(T)p.r(T)}|RNA2{r(U)p.r(U)p.m(A)p.r(G)p.m(A)p.r(A)p.r(C)p.r(A)p.r(G)p.r(A)p.r(C)p.r(G)p.r(A)p.r(C)p.r(G)p.r(A)p.m(G)p.r(G)p.m(A)p.r(T)p.r(T)}$$$RNA1{StrandType:ss}|RNA2{StrandType:as}$	63%
RNA1{m(A)p.r(A)p.m(A)p.r(C)p.m(G)p.r(A)p.m(G)p.r(A)p.m(G)p.r(A)p.m(G)p.r(C)p.m(C)p.r(C)p.m(A)p.r(C)p.m(C)p.r(U)p.m(U)p.r(T)p.r(T)}|RNA2{r(A)p.r(A)p.r(G)p.r(G)p.r(U)p.r(G)p.r(G)p.r(G)p.m(C)p.r(U)p.m(C)p.r(U)p.m(C)p.r(U)p.m(C)p.r(G)p.r(U)p.r(U)p.r(U)p.r(T)p.r(T)}$$$RNA1{StrandType:ss}|RNA2{StrandType:as}$	37%
RNA1{r(G)p.r(A)p.r(C)p.r(G)p.[hna](U)p.r(A)p.r(A)p.[hna](A)p.r(C)p.r(G)p.[hna](G)p.r(C)p.r(C)p.[hna](A)p.r(C)p.r(A)p.r(A)p.r(G)p.r(U)p.r(U)p.d(T)}|RNA2{r(A)p.[hna](C)p.r(U)p.r(U)p.r(G)p.r(U)p.r(G)p.r(G)p.[hna](C)p.r(C)p.r(G)p.r(U)p.r(U)p.r(U)p.r(A)p.r(C)p.r(G)p.[hna](U)p.[hna](C)p.[hna](G)p.d(T)}$$$RNA1{StrandType:ss}|RNA2{StrandType:as}$	0%
RNA1{m(G)p.r(A)p.m(A)p.r(G)p.m(A)p.r(G)p.m(C)p.r(C)p.m(U)p.r(A)p.m(C)p.r(A)p.m(C)p.r(A)p.m(A)p.r(C)p.m(C)p.r(C)p.m(U)p.r(T)p.r(T)}|RNA2{r(A)p.m(G)p.m(G)p.m(G)p.r(U)p.r(U)p.m(G)p.r(U)p.m(G)p.r(U)p.r(A)p.m(G)p.m(G)p.r(C)p.r(U)p.r(C)p.r(U)p.r(U)p.r(C)p.r(T)p.r(T)}$$$RNA1{StrandType:ss}|RNA2{StrandType:as}$	43%
RNA1{[hna](G)p.[hna](A)p.[hna](C)p.r(G)p.r(U)p.r(A)p.r(A)p.r(A)p.r(C)p.r(G)p.r(G)p.r(C)p.r(C)p.r(A)p.r(C)p.r(A)p.r(A)p.[hna](G)p.[hna](U)p.[hna](U)p.d(T)}|RNA2{r(A)p.r(C)p.r(U)p.r(U)p.r(G)p.r(U)p.r(G)p.r(G)p.r(C)p.r(C)p.r(G)p.r(U)p.r(U)p.r(U)p.r(A)p.r(C)p.r(G)p.[hna](U)p.[hna](C)p.[hna](G)p.d(T)}$$$RNA1{StrandType:ss}|RNA2{StrandType:as}$	84.6%
RNA1{r(C)p.r(G)p.[s4r](U)p.r(A)p.r(C)p.r(G)p.r(C)p.r(G)p.r(G)p.r(A)p.r(A)p.[s4r](U)p.r(A)p.r(C)p.[s4r](U)p.[s4r](U)p.r(C)p.r(G)p.r(A)p.r(T)p.r(T)}|RNA2{r(U)p.r(C)p.r(G)p.r(A)p.r(A)p.r(G)p.r(U)p.r(A)p.r(U)p.r(U)p.r(C)p.r(C)p.r(G)p.r(C)p.r(G)p.r(U)p.r(A)p.r(C)p.r(G)p.r(T)p.r(T)}$$$RNA1{StrandType:ss}|RNA2{StrandType:as}$	96.3%
RNA1{r(G)p.r(A)p.r(C)p.r(G)p.r(U)p.r(A)p.r(A)p.r(A)p.r(C)p.r(G)p.r(G)p.r(C)p.r(C)p.r(A)p.r(C)p.r(A)p.r(A)p.r(G)p.[hna](U)p.[hna](U)p.r(C)}|RNA2{r(A)p.m(C)p.r(U)p.r(U)p.r(G)p.r(U)p.r(G)p.r(G)p.r(C)p.r(C)p.r(G)p.r(U)p.r(U)p.r(U)p.r(A)p.r(C)p.r(G)p.r(U)p.r(C)p.r(G)p.r(C)}$$$RNA1{StrandType:ss}|RNA2{StrandType:as}$	57%
RNA1{m(C)p.r(U)p.m(A)p.r(C)p.m(C)p.r(U)p.m(U)p.r(C)p.m(U)p.r(C)p.m(C)p.r(U)p.m(C)p.r(U)p.m(U)p.r(C)p.m(U)p.r(C)p.m(C)p.r(T)p.r(T)}|RNA2{r(G)p.r(G)p.r(A)p.r(G)p.r(A)p.r(A)p.r(G)p.r(A)p.r(G)p.r(G)p.r(A)p.r(G)p.r(A)p.r(A)p.r(G)p.r(G)p.r(U)p.r(A)p.r(G)p.r(T)p.r(T)}$$$RNA1{StrandType:ss}|RNA2{StrandType:as}$	27%
